Results from patent US9266852B2, “Daidzein derivative, pharmaceutically acceptable salt and preparation method thereof, and pharmaceutical composition containing same” (ANHUI BIOCHEM BIO-PHARMACEUTICAL CO., LTD, priority 2011, dated 2016).
Where a name gives a salt, the structure may show the parent alone.

What was measured:
[1] = Experiment of solubility: solvent equilibrium experiment in methanol, gravimetric analysis; type: physicochemical; conditions: for solubility (solvent equilibrium experiment): methanol, 25°C, at least 20 hours, gravimetric, approximate
Protocol: in the water bath at 25±5° C., the solvent equilibrium experiment was performed on the above materials for at least 20 hours by using 1 mL methanol, then the solution was filtered and dried in the air for 10 minutes, and after the solvent was evaporated under vacuum, the approximate solubilities of the above materials in the solvent was measured through gravimetric analysis, with results shown in table 1.

rat in vitro thrombosis = test: Anti-thrombosis experiment: rat in vitro thrombosis after oral administration (artery-jugular vein blood flow bypass method); type: in vivo, rat (Wistar, male)
Protocol: 1. Rat in vitro general artery-jugular vein blood flow in the bypass method (please refer to “Journal of Changchun University of Traditional Chinese Medicine”, 2011, Volume 27, Issue 4, Pages 514-518, Yunfei Sun, Min Shi, “Study on the Effect of Pueraria Injection on Thrombosis Formation, Cerebral Ischemia and Platelet Aggregation in Rats);
1. Experiment in vivo: the dose is 50 mg/kg, 100 mg/kg, 200 mg/kg, and the animals are administered intragastrically once daily at 1 ml/100 g […] for 3 consecutive days;
2. Positive control, the animals are administered with acetylsalicylic acid (produced by Northwest Second Synthetic Pharmaceutical Factory) at 45 mg/kg in the experiment in vivo.

decapitated mice = test: Acute cerebral ischemia in mice (gasping time of decapitated mice); type: in vivo; conditions: for effect on acute ischemia tolerance time, in words: conclusion from table 5, mice, intraperitoneal; for Gasping times (X ± s) / Prolongation rates (gasping time): decapitated mice; for Gasping times (X ± s): 20 min after administration, n = 10, control group 18.5 ± 3.1; for Prolongation rates (gasping time): versus control group
Protocol: 70 mice were taken and randomly divided into seven groups, except the blank group which was not administered and the saline group which was administered with the same volume of saline, the remaining five groups were respectively injected intraperitoneally with 25 mg/kg pueraria daidzein, 36 mg/kg compound of the example of the present application, 47 mg/kg 4,7-disubstituted daidzein, 36 mg/kg 4-substituted daidzein and 36 mg/kg USP compound (the converted dose of each compound is equivalent to the dose of the daidzein, since the daidzein is difficult to dissolve in water, 50% propylene glycol aqueous solution is used to dissolve, and other compounds were dissolved with water to achieve a suitable concentration), 20 min after administration, the mice were decapitated rapidly from behind the ear, then the time starting from decapitation to the last gasp was recorded.

thrombus = test: Formation time and length of thrombus in rabbit blood, thrombosis instrument (antithrombotic effect research 2); type: in vivo, rabbits; conditions: for antithrombotic effect after oral administration, in words: conclusion from table 7, rabbits; for Lengths of thrombus, after administration / Thrombus formation times (X ± s), after administration / Lengths of thrombus, before administration / Thrombus formation times (X ± s), before administration: rabbits; for Lengths of thrombus, after administration: 15 minutes rotation; for Thrombus formation times (X ± s), after administration: 30 minutes after last administration; for Lengths of thrombus, before administration / Thrombus formation times (X ± s), before administration: baseline before administration
Protocol: 30 rabbits were taken and randomly divided into five groups, each group was administered intragastrically with 15 mg/kg pueraria daidzein, 22 mg/kg compound of the example of the present application, 28 mg/kg 4,7-disubstituted daidzein, 22 mg/kg 4-substituted daidzein and 22 mg/kg USP compound (the converted dose of each compound is equivalent to the dose of the daidzein, since the daidzein is difficult to dissolve in water, 50% propylene glycol aqueous solution is used to dissolve, and other compounds were dissolved with water to achieve a suitable concentration), 2 ml blood was taken from the heart before administration, and after 7 consecutive days of administration, 2 ml blood was taken from the heart 30 minutes after the last administration, and injected immediately into the rotating ring of the thrombosis instrument, and rotated at 15-17 rpm under 37° C., and the rotating time of the thrombus alone with the ring was recorded, which is defined as thrombus formation time of fibrin, the rotation was stopped after 15 minutes, the thrombus was taken out, and the length of the thrombus was measured.

[2] = test system: mice with hypoxia tolerance at normal pressure; test: Hypoxia tolerance of mice at normal pressure (survival time in closed jar); type: in vivo; conditions: for effect on hypoxia tolerance time, in words: conclusion from table 4, mice, intraperitoneal; for Survival times (X ± s) / Prolongation rates (survival time): mice; for Survival times (X ± s): 20 min after administration, n = 10, control group 22.5 ± 2.6; for Prolongation rates (survival time): versus control group
Protocol: 70 mice were taken and randomly divided into seven groups, except the blank group which was not administered and the saline group which was administered with the same volume of saline, the remaining five groups were respectively injected intraperitoneally with 25 mg/kg pueraria daidzein, 36 mg/kg compound of the example of the present application, 47 mg/kg 4,7-disubstituted daidzein, 36 mg/kg 4-substituted daidzein and 36 mg/kg USP compound (the converted dose of each compound is equivalent to the dose of the daidzein, since the daidzein is difficult to dissolve in water, 50% propylene glycol aqueous solution is used to dissolve, and other compounds were dissolved with water to achieve a suitable concentration), 20 min after administration, the mice were put into a 250 ml grinding jar (where 10 g soda lime was placed), with one mouse in each jar, and the jar was capped tightly after the mouse was put into the jar, then the survival time of the mice was immediately recorded by a stopwatch.

[3] = test system: euglobulin lysis time of guinea pigs; test: Euglobulin lysis time of guinea pigs (antithrombotic effect research 1); type: in vivo; conditions: for antithrombotic effect after oral administration, in words: conclusion from table 6, guinea pigs; for Optimal dissolution times (X ± s), after administration / Fibrinolytic enzyme activities, after administration / Optimal dissolution times (X ± s), before administration / Fibrinolytic enzyme activities, before administration: guinea pigs; for Optimal dissolution times (X ± s), after administration: 30 minutes after last administration; for Fibrinolytic enzyme activities, after administration / Fibrinolytic enzyme activities, before administration: =10000/optimal dissolution time (min); for Optimal dissolution times (X ± s), before administration / Fibrinolytic enzyme activities, before administration: baseline before administration
Protocol: 30 guinea pigs were taken and randomly divided into five groups, each group was administered intragastrically with 25 mg/kg pueraria daidzein, 36 mg/kg compound of the example of the present application, 47 mg/kg 4,7-disubstituted daidzein, 36 mg/kg 4-substituted daidzein, and 36 mg/kg USP compound (the converted dose of each compound is equivalent to the dose of the daidzein, since the daidzein is difficult to dissolve in water, 50% propylene glycol aqueous solution is used to dissolve, and other compounds were dissolved with water to achieve a suitable concentration), 1.5 ml blood was taken from the heart before administration, and after 7 consecutive days of administration, 1.5 ml blood was taken from the heart 30 minutes after the last administration, and put into a sodium citrate anti-cruor tube, and the plasma was separated by centrifugation, then 0.5 ml plasma was taken and added with 9 ml distilled water and 0.1 ml of 1% acetic acid solution, and the mixture was centrifugated after being refrigerated for 30 minutes, then the resulting precipitate was dissolved with 0.5 ml sodium borate buffer (pH9.0), and the dissolution time was recorded as euglobulin lysis time, it can be obtained through calculation that fibrinolytic enzyme activity (u)=10000/optimal dissolution time (min).

[4] = test system: whole blood in vitro thrombosis of normal rats; test: Anti-thrombosis experiment: whole blood in vitro thrombosis after in vitro administration (in vitro thrombosis instrument method); conditions: Rattus norvegicus, read-out: Thrombosis inhibition rates
Protocol: ii) Experimental animals: Wistar, which is a male rat outbreeding closed system, purchased from the Institute of Laboratory Animal Sciences, Chinese Academy of Medical Sciences, weighing 242±11.2 g, the animals are divided into 5 groups with 10 animals in each group.
Experiment in vitro: the dose is 1.56 mg/kg, 3.12 mg/kg, 6.25 mg/kg, and the animals are administered once directly.
Blank control, the animals are administered with the same volume of distilled water in the experiment in vivo; and administered with the same volume of saline in the experiment in vitro;

[5] = 22 mg/kg intragastrically 7 consecutive days
[6] = 36 mg/kg intragastrically 7 consecutive days
[7] = 36 mg/kg intragastrically 7 days
[8] = 15 mg/kg intragastrically 7 consecutive days

## O=C(CCl)Oc1ccc2c(=O)c(-c3ccc(O)cc3)coc2c1 [7-O-chloroacetyl daidzein]
[1]
  solubility (solvent equilibrium experiment): 17.6 mg/g

## CCN(CC)CC(=O)Oc1ccc2c(=O)c(-c3ccc(O)cc3)coc2c1 [7-O—N,N-diethyl-aminoacetyl daidzein hydrochloride]
[1]; conclusion from table 1, methanol 25°C
  solubility, in words: higher solubility
[1]; hydrochloride
  solubility (solvent equilibrium experiment): 25 mg/g
Rat in vitro thrombosis; conclusion from table 2 and table 3 (oral and in vitro administration, rat)
  antithrombotic effect, in words: good antithrombotic effect

## CCN(CC)CC(=O)Oc1ccc2c(=O)c(-c3ccc(O)cc3)coc2c1
Decapitated mice
  effect on acute ischemia tolerance time, in words: significantly prolong
Decapitated mice; 36 mg/kg intraperitoneally
  Gasping times (X ± s): 26.7 ± 4.8 s
  Prolongation rates (gasping time): 44.3%
thrombus
  antithrombotic effect after oral administration, in words: significant efficacy
thrombus; [5]
  Lengths of thrombus, after administration: 10.7 ± 1.96 cm
  Thrombus formation times (X ± s), after administration: 8.17 ± 1.54 min
thrombus; 22 mg/kg group
  Lengths of thrombus, before administration: 14.9 ± 1.27 cm
  Thrombus formation times (X ± s), before administration: 6.29 ± 1.31 min
[2]
  effect on hypoxia tolerance time, in words: significantly prolong
[2]; 36 mg/kg intraperitoneally
  Survival times (X ± s): 35.1 ± 6.6 min
  Prolongation rates (survival time): 56%
[3]
  antithrombotic effect after oral administration, in words: significant efficacy
[3]; [6]
  Optimal dissolution times (X ± s), after administration: 20.6 ± 5.5 min
[3]; [7]
  Fibrinolytic enzyme activities, after administration: 485.4 u
[3]; 36 mg/kg group
  Optimal dissolution times (X ± s), before administration: 33.6 ± 11.1 min
  Fibrinolytic enzyme activities, before administration: 297.6 u

## CC(=O)Oc1ccccc1C(=O)O [Acetylsalicylic acid, acetylsalicylic acid]
[4]
  inhibition at 1.46 mg/kg: 32.1%
Rat in vitro thrombosis; po, rat, 45 mg/kg, positive control, read-out: Thrombosis inhibition rates
  inhibition at 45 mg/kg: 58.7%
Rat in vitro thrombosis; rat, 45 mg/kg, positive control, n = 10, saline group 30.18 ± 3.12
  Wet weights of thrombus: 11.38 ± 1.47 mg

## CCN(CC)CC(=O)Oc1ccc2c(=O)c(-c3ccc(O)cc3)coc2c1 [7-O-N,N-diethyl-aminoacetyl daidzein, 7-O—N,N-diethyl-aminoacetyl daidzein]
[1]
  solubility (solvent equilibrium experiment): 16.3 mg/g

## O=c1c(-c2ccc(O)cc2)coc2cc(O)ccc12 [Pueraria daidzein, daidzein]
Decapitated mice
  effect on acute ischemia tolerance time, in words: poor effect
Decapitated mice; 25 mg/kg intraperitoneally
  Gasping times (X ± s): 23.1 ± 6.2 s
  Prolongation rates (gasping time): 24.9%
thrombus
  antithrombotic effect after oral administration, in words: weak antithrombotic effect
thrombus; [8]
  Lengths of thrombus, after administration: 12.8 ± 1.49 cm
  Thrombus formation times (X ± s), after administration: 7.18 ± 1.27 min
thrombus; 15 mg/kg group
  Lengths of thrombus, before administration: 14.2 ± 1.95 cm
  Thrombus formation times (X ± s), before administration: 6.21 ± 1.23 min
[2]
  effect on hypoxia tolerance time, in words: poor effect
[2]; 25 mg/kg intraperitoneally
  Survival times (X ± s): 28.1 ± 5.3 min
  Prolongation rates (survival time): 24.9%
[3]
  antithrombotic effect after oral administration, in words: weak antithrombotic effect
[3]; 25 mg/kg intragastrically 7 consecutive days
  Optimal dissolution times (X ± s), after administration: 27.3 ± 8.4 min
[3]; 25 mg/kg intragastrically 7 days
  Fibrinolytic enzyme activities, after administration: 366.3 u
[3]; 25 mg/kg group
  Optimal dissolution times (X ± s), before administration: 34.5 ± 10.1 min
  Fibrinolytic enzyme activities, before administration: 289.9 u
[1]
  solubility (solvent equilibrium experiment): 16.8 mg/g

## CN(C)CCCC(=O)Oc1ccc2c(=O)c(-c3ccc(O)cc3)coc2c1 [USP compound, 7-O—N,N-dimethyl-aminobutyryl daidzein]
Decapitated mice; 36 mg/kg intraperitoneally
  Gasping times (X ± s): 23.5 ± 7.2 s
  Prolongation rates (gasping time): 27%
thrombus; [5]
  Lengths of thrombus, after administration: 11.8 ± 2.01 cm
  Thrombus formation times (X ± s), after administration: 7.31 ± 1.72 min
thrombus; 22 mg/kg group
  Lengths of thrombus, before administration: 14.1 ± 3.84 cm
  Thrombus formation times (X ± s), before administration: 6.37 ± 1.72 min
[2]; 36 mg/kg intraperitoneally
  Survival times (X ± s): 24.6 ± 5.7 min
  Prolongation rates (survival time): 9.3%
[3]; [6]
  Optimal dissolution times (X ± s), after administration: 25.7 ± 7.7 min
[3]; [7]
  Fibrinolytic enzyme activities, after administration: 389.1 u
[3]; 36 mg/kg group
  Optimal dissolution times (X ± s), before administration: 35.5 ± 8.2 min
  Fibrinolytic enzyme activities, before administration: 281.7 u

## CCN(CC)CC(=O)Oc1ccc(-c2coc3cc(O)ccc3c2=O)cc1 [4-substituted daidzein]
Decapitated mice; 36 mg/kg intraperitoneally
  Gasping times (X ± s): 20.3 ± 8.1 s
  Prolongation rates (gasping time): 9.7%
thrombus; [5]
  Lengths of thrombus, after administration: 14.1 ± 2.17 cm
  Thrombus formation times (X ± s), after administration: 7.25 ± 1.34 min
thrombus; 22 mg/kg group
  Lengths of thrombus, before administration: 14.7 ± 2.02 cm
  Thrombus formation times (X ± s), before administration: 6.44 ± 1.71 min
[2]; 36 mg/kg intraperitoneally
  Survival times (X ± s): 21.1 ± 6.4 min
[3]; [6]
  Optimal dissolution times (X ± s), after administration: 29.3 ± 5.7 min
[3]; [7]
  Fibrinolytic enzyme activities, after administration: 341.3 u
[3]; 36 mg/kg group
  Optimal dissolution times (X ± s), before administration: 30.3 ± 9.4 min
  Fibrinolytic enzyme activities, before administration: 330.0 u
